What is called Ki is a measure of affinity in units of concentration, obtained from inhibition or displacement. A higher Ki goes with lower affinity. By solubility is commonly meant the dissolved amount per volume that the medium holds. One may read the inhibition in vivo as the share of the control response that was lost under treatment. The AUC is the area under the concentration-time curve, a measure of exposure. Read a high AUC as more exposure.

Experimental findings from ChEMBL document CHEMBL1759931, “Potent and selective adenosine A(2A) receptor antagonists: [1,2,4]-triazolo[4,3-c]pyrimidin-3-ones” (Bioorg Med Chem Lett, 2011) are described below.

For one data set, the target named is Adenosine receptor A2a (Homo sapiens, UniProt P29274). Put plainly: Antagonist activity against human adenosine A2A receptor. The format is functional.
Chain of Adenosine receptor A2a (P29274 whole entry): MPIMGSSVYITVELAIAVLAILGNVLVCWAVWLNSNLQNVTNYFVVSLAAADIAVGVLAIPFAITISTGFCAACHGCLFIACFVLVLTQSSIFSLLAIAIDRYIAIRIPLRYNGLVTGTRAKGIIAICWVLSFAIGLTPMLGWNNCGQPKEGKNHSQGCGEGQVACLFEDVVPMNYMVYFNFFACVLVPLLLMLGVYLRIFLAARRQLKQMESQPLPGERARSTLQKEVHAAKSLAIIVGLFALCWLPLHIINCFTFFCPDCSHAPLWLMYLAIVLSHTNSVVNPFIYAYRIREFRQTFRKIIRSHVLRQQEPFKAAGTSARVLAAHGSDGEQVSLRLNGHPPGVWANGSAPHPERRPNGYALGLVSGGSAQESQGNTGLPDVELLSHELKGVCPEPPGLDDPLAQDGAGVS
The species named for the next data set is Homo sapiens. Put plainly: Ratio of Ki for human adenosine A1 receptor to Ki for human adenosine A2A receptor.
The nature of data set [1]: Solubility of the compound at pH 7.4. The format is physicochemical. Conditions: buffer.
Data set [2] relates to Rattus norvegicus. In words: Inhibition of haloperidol -induced catalepsy in rat at 10 mg/kg, po measured after 1 hr. The format is functional.
The test system of data set [3] is Rattus norvegicus. In words: Inhibition of haloperidol -induced catalepsy in rat at 10 mg/kg, po measured after 4 hrs. It counts as functional.
The subject of data set [4] is Rattus norvegicus. Put plainly: Intrinsic clearance in rat at 3 mg/kg. The note with it: in vivo. The format is ADME, organism-based. Also noted: dose 3 mg/kg.
Data set [5] can be described thus: AUC in rat at 3 mg/kg by LC-MS analysis. The format is ADME, organism-based. Conditions: plasma. Set-up: dose 3 mg/kg.
A short description of data set [6]: Drug uptake in rat brain at 3 mg/kg measured after 6 hrs. The format is ADME, organism-based. Also noted: dose 3 mg/kg. The note with it: read-out: Drug uptake.

With `CS(=O)(=O)N1CCN(CCn2ncc3c2nc(N)n2c(=O)n(Cc4ccccc4)nc32)CC1`, the inhibition constant Ki on Adenosine receptor A2a came out at 0.0089 µM. For the same compound, the Ratio Ki in the data set filed under Homo sapiens stood at 157. In addition, in data set [1] (read-out: solubility), the solubility was found to be 75 µM.
The compound `Nc1nc(-c2ccccc2)cc2nn(Cc3ccccc3)c(=O)n12` displayed a Ki on Adenosine receptor A2a of 0.001 µM. The Ratio Ki in the data set filed under Homo sapiens was 26.
For `Nc1nc2c(cnn2CCN2CCN(c3ccc(F)cc3F)CC2)c2nn(Cc3ccccc3)c(=O)n12`, the Ki on Adenosine receptor A2a was above 1.3 µM.
As to `Nc1nc2c(cnn2CCN2CCN(c3ccc(F)cc3F)CC2)c2nn(Cc3cccc(Cl)c3)c(=O)n12`, affinity at Adenosine receptor A2a was put at a Ki of 0.0234 µM. In addition, the Ratio Ki in the data set filed under Homo sapiens was determined as 60.
`Nc1nc2c(cnn2CCN2CCOCC2)c2nn(CC3CC3)c(=O)n12` displayed an inhibition constant Ki on Adenosine receptor A2a of 0.381 µM. In addition, the Ratio Ki in the data set listed under Homo sapiens came out at 4. Besides, in data set [1] (read-out: solubility), the solubility was above 250 µM.
The like results for `Nc1nc(-c2cccnc2)cc2nn(Cc3ccccc3)c(=O)n12` were, in that order, 0.791 µM, 2 and 100 µM.
In the same order, the values of `COCCOc1ccc(N2CCN(CCn3ncc4c3nc(N)n3c(=O)n(Cc5cccc(Cl)c5)nc43)CC2)c(F)c1` are 0.0156 µM, 90 and 12 µM.
Consider `COCCOc1ccc(N2CCN(CCn3ncc4c3nc(N)n3nc(-c5ccco5)nc43)CC2)cc1` [PRELADENANT], for which the figures for the inhibition in vivo at 10 mg/kg in the data set with Rattus norvegicus [2] and in the data set with Rattus norvegicus [3] were 75% and 80%, respectively. The compound further displayed a solubility in data set [1] below 0.01 µg/mL.
At Adenosine receptor A2a, `Nc1nc2c(cnn2CCN2CCN(c3cnccn3)CC2)c2nn(Cc3cccc(Cl)c3)c(=O)n12` yielded an inhibition constant Ki of 0.0129 µM. Also, the Ratio Ki in the data set filed under Homo sapiens was determined as 109. For the same compound, the solubility in data set [1] (read-out: solubility) is 25 µM.
The compound `CN(C)CCn1ncc2c1nc(N)n1c(=O)n(CC3CC3)nc21` registered a Ki on Adenosine receptor A2a above 1.5 µM. Further, in data set [1] (read-out: solubility), the solubility is above 250 µM.
On Adenosine receptor A2a, `COCCOc1ccc(N2CCN(CCn3ncc4c3nc(N)n3c(=O)n(Cc5ccccc5)nc43)CC2)c(F)c1` returned a Ki above 1.3 µM. In data set [1] (read-out: solubility), the solubility was determined as 12 µM.
Turning to `C=Cn1ncc2c1nc(N)n1c(=O)n(Cc3cccc(Cl)c3)nc21`, on Adenosine receptor A2a, the inhibitory constant (Ki) was 0.0004 µM. In addition, the Ratio Ki in the data set filed under Homo sapiens was 356. For the same compound, the inhibition in vivo at 10 mg/kg came to 13% with Rattus norvegicus [2] and 15% in the data set on Rattus norvegicus [3]. Besides, the CL in the data set on Rattus norvegicus [4] came out at 27.7 mL/min/kg. Besides, the solubility in data set [1] (read-out: solubility) was determined as 12 µM.
On Adenosine receptor A2a, `CN(C)CCn1ncc2c1nc(N)n1c(=O)n(Cc3ccccc3)nc21` had an inhibition constant Ki above 1.5 µM. For the same compound, the solubility in data set [1] (read-out: solubility) was above 250 µM.
The compound `CS(=O)(=O)N1CCN(CCn2ncc3c2nc(N)n2c(=O)n(Cc4cccc(Cl)c4)nc32)CC1` registered an inhibition constant Ki on Adenosine receptor A2a of 0.0105 µM. The Ratio Ki in the data set listed under Homo sapiens amounted to 133. Besides, in data set [1] (read-out: solubility), the solubility amounted to 12 µM.
In the same order, the values of `Nc1nc2c(cnn2CCN2CCC3(CC2)OCCO3)c2nn(Cc3ccccc3)c(=O)n12` are 0.0087 µM, 162 and 75 µM.
In turn, `C=Cn1ncc2c1nc(N)n1c(=O)n(Cc3ccccc3)nc21` registered an inhibitory constant (Ki) at Adenosine receptor A2a of 0.0003 µM. The Ratio Ki in the data set filed under Homo sapiens came out at 1120. The inhibition in vivo at 10 mg/kg in the data set on Rattus norvegicus [2] came out at 0%; in the data set with Rattus norvegicus [3] it was 8%. The compound further had an area under the curve (AUC) in data set [5] of 0.248 µM·h. The concentration at 6 h in data set [6] was 10 ng/g. For the same compound, the CL with Rattus norvegicus [4] worked out at 24.4 mL/min/kg. The solubility in data set [1] (read-out: solubility) turned out to be 37 µM.
In turn, `Nc1nc2c(c3nn(Cc4ccccc4)c(=O)n13)CCc1ccccc1-2` registered an inhibitory constant (Ki) on Adenosine receptor A2a of 0.0005 µM. Moreover, the Ratio Ki in the data set filed under Homo sapiens turned out to be 43. Moreover, the inhibition in vivo at 10 mg/kg in the data set with Rattus norvegicus [2] worked out at 0%; in the data set on Rattus norvegicus [3] it was 18%. In addition, the concentration at 6 h in data set [6] was found to be 10 ng/g. Further, in the data set on Rattus norvegicus [4], the CL was determined as 14.7 mL/min/kg.
Consider `Nc1nc2c(cnn2CCN2CCOCC2)c2nn(Cc3cccc(Cl)c3)c(=O)n12`, for which the inhibitory constant (Ki) at Adenosine receptor A2a is 0.0142 µM. Further, the Ratio Ki in the data set listed under Homo sapiens worked out at 99. The solubility in data set [1] (read-out: solubility) is 25 µM.
Compound `CN(C)CCn1ncc2c1nc(N)n1c(=O)n(Cc3cccc(Cl)c3)nc21` yielded a Ki at Adenosine receptor A2a of 0.0052 µM. Also, in the data set listed under Homo sapiens, the Ratio Ki stood at 269. Also, the figures for the inhibition in vivo at 10 mg/kg in the data set with Rattus norvegicus [2] and in the data set with Rattus norvegicus [3] were 13% and 20%, respectively. In data set [5], this compound yielded an AUC of 0.398 µM·h. Besides, the concentration at 6 h in data set [6] came to 39 ng/g. The CL in the data set on Rattus norvegicus [4] came to 37.3 mL/min/kg. In addition, the solubility in data set [1] (read-out: solubility) worked out at 18 µM.
Regarding `Nc1nc(-c2ccccc2)cc2nc(-c3ccco3)nn12`, at Adenosine receptor A2a, the Ki came to 0.007 µM. The Ratio Ki in the data set listed under Homo sapiens came out at 3.
As to `CC(C)(C)OC(=O)N1CCN(CCn2ncc3c2nc(N)n2c(=O)n(Cc4cccc(Cl)c4)nc32)CC1`, the inhibition constant Ki on Adenosine receptor A2a was determined as 0.556 µM. Also, the Ratio Ki in the data set listed under Homo sapiens is 2. Further, the solubility in data set [1] (read-out: solubility) was determined as 25 µM.
In the case of `Nc1nc2c(cnn2CCN2CCC3(CC2)OCCO3)c2nn(Cc3cccc(Cl)c3)c(=O)n12`, the affinity on Adenosine receptor A2a, expressed as Ki, was 0.011 µM. The Ratio Ki in the data set listed under Homo sapiens turned out to be 127.
Turning to `Nc1nc2c(cnn2CCN2CCN(c3cnccn3)CC2)c2nn(Cc3ccccc3)c(=O)n12`, on Adenosine receptor A2a, the Ki was found to be 0.0127 µM. The Ratio Ki in the data set listed under Homo sapiens is 110. In addition, the solubility in data set [1] (read-out: solubility) worked out at 50 µM.
In the case of `Nc1nc2c(cnn2CCN2CCC(N3CCOCC3)CC2)c2nn(Cc3cccc(Cl)c3)c(=O)n12`, the Ki on Adenosine receptor A2a turned out to be 0.0067 µM. For the same compound, the Ratio Ki in the data set listed under Homo sapiens was 224.
As for `Nc1nc(-c2cccc(CO)c2)cc2nn(Cc3ccccc3)c(=O)n12`, at Adenosine receptor A2a, the inhibition constant Ki was 1.7 µM. For the same compound, the Ratio Ki in the data set listed under Homo sapiens was found to be 1. In data set [1] (read-out: solubility), the solubility was found to be 100 µM.
At Adenosine receptor A2a, `Nc1nc2c(cnn2CCN2CCC(N3CCOCC3)CC2)c2nn(Cc3ccccc3)c(=O)n12` returned a Ki of 0.0284 µM. For the same compound, the Ratio Ki in the data set filed under Homo sapiens was 53.
On Adenosine receptor A2a, `C=Cn1ncc2c1nc(N)n1c(=O)n(CC3CC3)nc21` showed a Ki of 0.0274 µM. Also, the Ratio Ki in the data set listed under Homo sapiens was determined as 55. The solubility in data set [1] (read-out: solubility) was determined as 175 µM.
For the compound `COc1ccc(-c2cc3nn(Cc4ccccc4)c(=O)n3c(N)n2)cc1`, the Ki at Adenosine receptor A2a stood at 0.636 µM. The Ratio Ki in the data set filed under Homo sapiens is 2. Besides, in data set [1] (read-out: solubility), the solubility worked out at 25 µM.
At Adenosine receptor A2a, `CC(C)(C)OC(=O)N1CCN(CCn2ncc3c2nc(N)n2c(=O)n(Cc4ccccc4)nc32)CC1` returned a Ki above 1.3 µM. The solubility in data set [1] (read-out: solubility) amounted to 100 µM.
On Adenosine receptor A2a, `Nc1nc2c(cnn2CCN2CCOCC2)c2nn(Cc3ccccc3)c(=O)n12` registered a Ki of 0.009 µM. The Ratio Ki in the data set listed under Homo sapiens is 156. The solubility in data set [1] (read-out: solubility) came to 175 µM.
